From patent US11446294B2, “Non-platinum-based anti-cancer compounds for use in targeted chemotherapy” (priority 2013, dated 2022)
“Also recorded” adds a separate entry of the source.

Tests used:
[1] = fs-TRLS observation of DET reaction with a weakly-bound electron; conditions: pump 350 nm, probe 400 nm; for DET reaction with weakly-bound electron ewb−: identical conditions
From the text: Femtosecond (fs) time-resolved laser spectroscopy (fs-TRLS) is the most versatile and powerful technique for real-time observation of molecular reactions. It uses laser flashes of such short duration that we are down to the time scale on which the reactions actually happen—femtoseconds (fs) (1 fs=10^−15 seconds). […] For the latter, briefly our fs laser amplifier system (Spectra-Physics, Spitfire) produced laser pulses with a pulse width of 100-120 fs at a repetition rate of 500 Hz. A intense pump pulse at 350 nm was used to generate a weakly-bound electron (ewb^−) by 2-photon excitation of a H2O molecule into a higher energy state H2O* that then ionizes to produce an ewb^−; a probe pulse at 400 nm coming at certain delay was used to monitor the DET reaction with the electron by detecting transient absorbance of the reaction intermediate anion state.

[2] = system: human cervical cancer (HeLa) cells; assay: MTT cell viability, HeLa; format: cell-based; conditions: 96-hr treatment
[3] = system: human cervical cancer (ME-180) cells; assay: MTT cell viability, ME-180; format: cell-based; conditions: ME-180, 96-hr treatment
Method: (§1) The complete growth media for ME-180, NIH:OVCAR-3, A549 and MDA-MB-231 cells were the ATCC-formulated McCoy's 5A Medium supplemented with 10% FBS, RPMI 1640 medium with 20%, F-12K medium with 10% FBS, and L-15 Medium (Leibovitz) with 10% FBS, respectively.
(§2) The MTT assay of cell viability was then conducted.

[4] = system: human breast cancer (MDA-MB-231) cells; assay: MTT cell viability, MDA-MB-231; format: cell-based; conditions: MDA-MB-231, 96-hr treatment
Method: as §1, §2

[5] = system: human lung cancer (A549) cells; assay: MTT cell viability, A549; format: cell-based
Method: as §1, §2

[6] = system: cisplatin-resistant human ovarian cancer (NIH:OVCAR-3, HTB-161) cells; assay: MTT cell viability, HTB-161; format: cell-based; conditions: HTB-161, 96-hr treatment
Method: as §1, §2

[7] = system: human normal cells (GM05757); assay: MTT cell viability, human normal cells (toxicity); conditions: for toxicity to human normal cells (cell survival rate): GM05757, 96-hr treatment, up to 200 μM
Method: A human skin diploid fibroblast (GM05757 cell line) was obtained from the Coriell Cell Repository directly. Fetal bovine serum (FBS) was obtained from Hyclone Laboratories (UT, USA). The GM05757 normal cells were cultivated with MEM (Hyclone) supplemented with 10% FBS, 100 units/mL penicillin G and 100 μg/mL streptomycin (Hyclone). The cells were maintained at 37° C. in a humidified atmosphere containing 5% CO2.
The toxic effects of NPBs on cell viability were determined by the 3-[4,5-dimethylthiazol-2-yl]-2,5-diphenyl tetrazoliumbromide (MTT) assay. Cells were cultured in 96-well plates (5×10^3 cells/well) for 24 h. The culture medium was replaced by fresh culture medium and incubated for 72 or 96 h with varying drug concentrations. The MTT assay of cell viability was then conducted. Briefly, 100 μl new medium without phenol red containing 1.2 mM MTT (sigma) (i.e., adding 10 μl 12 mM MTT stock solution in PBS) were added to each well and incubated for 4 h. The medium was then removed, and the formazan crystals solubilized by 100 μL/well DMSO (or alternatively by 100 μl/well SDS and incubated for another 4 h). The surviving fraction was determined by measuring the absorbance at 540 nm (570 nm for SDS solubilization) using a Multiskan Spectrum UV/Vis microplate reader (Thermo Scientific), which is directly proportional to the number of viable cells.

[8] = system: human cervical cancer (ME-180) cells; assay: γH2AX DNA damage assay (DNA double-strand breaks); format: cell-based; conditions: ME-180, 12 h treatment
Method: The γH2AX DNA damage assay (Invitrogen) was used to detect DSBs of genomic DNA in cancer cells. The phosphorylated H2AX foci are a biomarker of DNA DSB. DNA DSBs are measured by specific antibody-based detection of phosphorylated H2AX (γH2AX) in the nucleus. Briefly, the human cervical cancer (ME-180) cells were treated with different concentrations of compound B for 12 h under the cell culture conditions described above. Then following the detailed experimental procedures described in the Protocol provided by the manufacturer, we performed the HCS DNA Damage Assay of the treated cells. The images of cells were acquired with a Nikon Eclipse TS100 fluorescence microscope; quantitative analyses of activated γ-H2AX (DNA DBS yield) in the cells were performed using an Image J software.

[9] = system: human cervical cancer (ME-180) cells; assay: CellEvent Caspase-3/7 apoptosis assay by fluorescence microscopy; format: cell-based; conditions: 48 h
From the text: Human cervical cancer (ME-180) cells were purchased from the American Type Culture Collection (ATCC).
The CellEvent™ Caspase-3/7 Green Detection Kit (Invitrogen) was used for the detection of activated caspases and apoptotic cells following the vendor's protocol. This kit provides a […] specific for caspase-3 and -7; the cells show green fluorescence for activated caspase-3 and -7. The reagent consists of a four amino acid peptide (DEVD) conjugated to a nucleic acid binding dye. This cell-permeant substrate is intrinsically non-fluorescent, because the DEVD peptide inhibits the ability of the dye to bind to DNA. After activation of caspase-3 or caspase-7 in apoptotic cells, the DEVD peptide is cleaved, enabling the dye to bind to DNA and produce green fluorescence. Briefly, to use the CellEvent™ Caspase-3/7 Green Detection Reagent, add the substrate to the cells in complete growth medium, incubate for 30 minutes, and image. […] Because the cleaved reagent labels nuclei of caspase 3/7-positive cells, this stain can also provide information on nuclear morphology, including condensed nuclei typical of late-stage apoptosis. ME-180 cells were grown to 60% confluence and then treated with 0-200 μM compound B for 48 h. The fluorescence was detected with a Nikon Eclipse TS100 microscope. Images were captured with an attached camera.

[10] = system: human cervical cancer (ME-180) tumor; assay: Xenograft mouse model of human cervical cancer (ME-180); format: in vivo, SCID mice; conditions: 7 mg/kg daily for 5 days, IP
Method: The two groups in the experiment were: (1) control article (5% EtOH/medium); (2) Compound B at 7 mg/kg in 5% EtOH/medium daily for 5 days, as shown in Table 1.
(§3) 6-8 week SCID mice were used in this study; Compound B as an exemplary NPB was dissolved in 5% EtOH: 95% cell culture medium (≈1:20).
ME-180 (human cervical cancer) cells were cultured in the ATCC-formulated McCoy's 5A Medium supplemented with 10% FBS. […] The cells were rinsed with PBS, trypsined for detachment from the bottom of the flask, mixed with fresh growth medium, and centrifuged to remove the supernatant. The cells were re-suspend with fresh medium to appropriate concentration for s.c. injection into the mice. Injection volume was 50 μl (1.5×10^6 cells) per animal.
ME-180 tumour cells were subcutaneously into female SCID mice (age 6-8 weeks) in a volume of 50 μL into the left flank using a 27-gauge needle. This was established as a subcutaneous (SC) xenograft mouse model of human cervical cancer.
(§4) Mice were individually weighed and injected intraperitoneally according to body weight for an injection concentration as outlined in the study group table above. The injection volume was based on 200 μL per 20 g mouse. The skin surface was wiped down with 70% isopropyl alcohol to clean the injection site.
Tumor size was measured as a function of time to assess tumor growth delay associated with treatment using slide caliper. […]

[11] = In vivo toxicity in SCID mice
Method: The two groups (five 6-8 week SCID mice/group) in the experiment were: (1) control article (in 5% EtOH/medium); and (2) Compound B 7 mg/kg in 5% EtOH/medium, as shown in Table 2. Compound B was injected IP every day for 5 days.
as §3
as §4, with “6-8 week SCID Mice” for “Mice”, “intraperitoneally (IP)” for “intraperitoneally”, “above. Compound B was administered by IP injection into mice at 0, and 7 mg/kg daily for 5 days.” for “above.”
The overall drug toxicity in mice was observed by a survival assay and body weight measurements, and the acute drug toxicity was measured by blood collection and histology. The hepatotoxicity (ALT, ALP, total bilirubin), nephrotoxicity (blood urea, creatinine), and electrolytes (Na, K, Cl) were analyzed by biochemical methods or HPLC-mass spectroscopy. […] Blood samples were collected from the saphenous vein at various time points after drug injection. At the end of the study, whole organs were harvested in order to assess liver, and kidney toxicity.
All animals were observed post administration, and at least once a day, more if deemed necessary, during the pre-treatment and treatment periods for mortality and morbidity. In particular, animals were monitored for signs of ill health such as body weight loss, change in appetite, behavior changes such as altered gait, lethargy and gross manifestations of stress.

[12] = mouse, in vivo, ip, 7 mg/kg/day

| Molecule | DET reaction with weakly-bound electron ewb− [1] | cell survival rate (killing of cancer cells) [2] | cell survival rate (killing of cancer cells) [3] | cell survival rate (killing of cancer cells) [4] | cell survival rate (killing of cancer cells) ([5]; A549, 96 hr treatment) | cell survival rate (killing of cisplatin-resistant cancer cells) [6] | toxicity to human normal cells (cell survival rate) [7] | also measured |
| --- | --- | --- | --- | --- | --- | --- | --- | --- |
| O=c1[nH]c(=O)n([C@H]2C[C@H](O)[C@@H](CO)O2)cc1Br [BrdU, bromodeoxyuridine] | no DET reactions detected; also recorded: negligible; also recorded: no DET reaction | – | – | – | – | – | – | – |
| Nc1cc(Cl)c(Cl)cc1N [Compound A, 4,5-dichloro-1,2-phenylenediamine] | – | significant killing | significant killing | significant killing | significant killing | significant killing | essentially no toxicity; also recorded: little toxicity | – |
| Nc1cc(Br)c(Br)cc1N [Compound B, 4,5-dibromo-1,2-phenylenediamine] | highly effective | significant killing | significant killing | significant killing | significant killing | significant killing | essentially no toxicity; also recorded: little toxicity | dissociative lifetime of NPB*− ([1]; ethanol): ~6.0 ps; yield of DNA double-strand breaks (γ-H2AX intensity) [8]: significant amount of DNA DSBs; activation of caspase-3 and -7 ([9]; ME-180, 0-200 μM): significant activation; population of apoptotic cells ([9]; ME-180, 200 μM): ≥ 60%; tumor growth vs control group [10]: significantly suppressed tumor growth; overall toxicity ([11]; 7 mg/kg daily for 5 days, IP): no overall drug toxicity; electrolytes (Na, K, Cl) [11, 12]: no changes in electrolytes; hepatotoxicity (ALT, ALP, total bilirubin) [11, 12]: no hepatotoxicity; nephrotoxicity (blood urea, creatinine) [11, 12]: no nephrotoxicity |
| Nc1cc(I)c(I)cc1N [Compound C, 4,5-diiodo-1,2-phenylenediamine] | – | significant killing | – | significant killing | – | significant killing | essentially no toxicity; also recorded: little toxicity | cell survival rate (killing of cancer cells) ([5]; A549, 72 hr treatment): significant killing |
| O=c1[nH]c(=O)n([C@H]2C[C@H](O)[C@@H](CO)O2)cc1I [IdU, iododeoxyuridine] | no DET reactions detected; also recorded: negligible; also recorded: no DET reaction | – | – | – | – | – | – | – |
| bromo-(1,2-)diamino-benzene [Compound D] | – | significant killing | significant killing | significant killing | significant killing | significant killing | essentially no toxicity; also recorded: little toxicity | – |
| cis-Pt(NH3)2Cl2 [cisplatin, reference compound] | – | – | – | – | – | – | – | IC50 ([7]; read-out: IC50 (cell survival rate 50% with respect to untreated cells), GM05757, 72-hr treatment): ~10 µM |
